Patent US20210122730A1, “GLUCOCORTICOID RECEPTOR MODULATORS” (ORIC Pharmaceuticals, Inc., priority 2017, published 2021)

target: T1, GR (Homo sapiens, UniProt P04150); test: In Vitro GR Luciferase Reporter Assay (antagonist mode, CHO-K1-GR-MMTV-Luc reporter cells); format: cell-based; conditions: antagonist mode, 10 nM Dexamethasone
T1 construct: expressed in transfected cells; host or cells: CHO-K1
T1 sequence (P04150 1-777): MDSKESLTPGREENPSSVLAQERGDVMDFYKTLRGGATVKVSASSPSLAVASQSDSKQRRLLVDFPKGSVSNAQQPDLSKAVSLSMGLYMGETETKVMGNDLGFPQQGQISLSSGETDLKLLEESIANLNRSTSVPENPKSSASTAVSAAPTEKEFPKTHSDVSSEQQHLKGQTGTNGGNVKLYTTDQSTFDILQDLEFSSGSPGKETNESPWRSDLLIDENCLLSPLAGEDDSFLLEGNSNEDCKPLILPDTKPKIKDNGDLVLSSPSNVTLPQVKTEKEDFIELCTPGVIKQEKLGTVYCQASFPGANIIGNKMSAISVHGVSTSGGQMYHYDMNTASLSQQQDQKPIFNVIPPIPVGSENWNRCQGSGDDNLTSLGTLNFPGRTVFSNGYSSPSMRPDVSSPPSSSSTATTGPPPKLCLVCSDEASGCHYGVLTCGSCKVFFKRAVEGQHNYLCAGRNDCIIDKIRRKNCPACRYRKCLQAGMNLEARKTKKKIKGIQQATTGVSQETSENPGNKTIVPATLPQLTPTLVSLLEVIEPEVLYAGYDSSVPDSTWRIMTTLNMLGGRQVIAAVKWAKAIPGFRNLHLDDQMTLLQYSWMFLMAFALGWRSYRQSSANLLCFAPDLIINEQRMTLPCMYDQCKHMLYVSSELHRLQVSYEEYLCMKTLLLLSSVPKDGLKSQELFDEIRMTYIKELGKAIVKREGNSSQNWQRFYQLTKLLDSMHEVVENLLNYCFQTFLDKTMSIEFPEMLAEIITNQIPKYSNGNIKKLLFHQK
Summary of the method: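 Antagonist mode: compounds (8 serial 1:5 dilutions) added to GR-MMTV-luciferase CHO-K1 reporter cells co-exposed to 10 nM dexamethasone final, in phenol red-free DMEM plus 10% CSS. After roughly 18-24 h at 37° C, OneGlo luminescence read and IC50 calculated.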

Structure (SMILES)	IC50
O=C(c1nccs1)[C@]12Cc3cnn(-c4ccc(F)cc4)c3C=C1CC[C@H](N(C1CC1)S(=O)(=O)c1ccc(F)cc1)C2 [Example 159, N-cyclopropyl-4-fluoro-N-((4aS,6S)-1-(4-fluorophenyl)-4a-(thiazole-2-carbonyl)-4,4a,5,6,7,8-hexahydro-1H-benzo[f]indazol-6-yl)benzenesulfonamide]	≤ 100 nM
CN([C@H]1CCC2=Cc3c(cnn3-c3ccc(F)cc3)C[C@]2(C(=O)c2nccs2)C1)S(=O)(=O)c1cnn(C)n1 [Example 161, N-((4aS,6S)-1-(4-fluorophenyl)-4a-(thiazole-2-carbonyl)-4,4a,5,6,7,8-hexahydro-1H-benzo[f]indazol-6-yl)-N,2-dimethyl-2H-1,2,3-triazole-4-sulfonamide]	≤ 100 nM
CN([C@H]1CCC2=Cc3c(cnn3-c3ccc(F)cc3)C[C@]2(C(=O)c2nccs2)C1)S(=O)(=O)c1cnn(C2CC2)n1 [Example 162, 2-cyclopropyl-N-((4aS,6S)-1-(4-fluorophenyl)-4a-(thiazole-2-carbonyl)-4,4a,5,6,7,8-hexahydro-1H-benzo[f]indazol-6-yl)-N-methyl-2H-1,2,3-triazole-4-sulfonamide]	≤ 100 nM
CN([C@H]1CCC2=Cc3c(cnn3-c3ccc(F)cc3)C[C@]2(C(=O)c2cc(C(F)(F)F)ccn2)C1)S(=O)(=O)c1cn(C)cn1 [Example 163, N-((4aS,6S)-1-(4-fluorophenyl)-4a-(4-(trifluoromethyl)picolinoyl)-4,4a,5,6,7,8-hexahydro-1H-benzo[f]indazol-6-yl)-N,1-dimethyl-1H-imidazole-4-sulfonamide]	≤ 100 nM
CCN([C@H]1CCC2=Cc3c(cnn3-c3ccc(F)cc3)C[C@]2(C(=O)c2nccs2)C1)S(=O)(=O)c1cnn(C(F)F)c1 [Example 165, 1-(difluoromethyl)-N-ethyl-N-((4aS,6S)-1-(4-fluorophenyl)-4a-(thiazole-2-carbonyl)-4,4a,5,6,7,8-hexahydro-1H-benzo[f]indazol-6-yl)-1H-pyrazole-4-sulfonamide]	≤ 100 nM
CCN([C@H]1CCC2=Cc3c(cnn3-c3ccc(F)cc3)C[C@]2(C(=O)c2nccs2)C1)S(=O)(=O)c1ccn(C)n1 [Example 167, N-ethyl-N-((4aS,6S)-1-(4-fluorophenyl)-4a-(thiazole-2-carbonyl)-4,4a,5,6,7,8-hexahydro-1H-benzo[f]indazol-6-yl)-1-methyl-1H-pyrazole-3-sulfonamide]	≤ 100 nM
Cn1cc(S(=O)(=O)N(C2CC2)[C@H]2CCC3=Cc4c(cnn4-c4ccc(F)cc4)C[C@]3(C(=O)c3nccs3)C2)cn1 [Example 168, N-cyclopropyl-N-((4aS,6S)-1-(4-fluorophenyl)-4a-(thiazole-2-carbonyl)-4,4a,5,6,7,8-hexahydro-1H-benzo[f]indazol-6-yl)-1-methyl-1H-pyrazole-4-sulfonamide]	≤ 100 nM
CN([C@H]1CCC2=Cc3c(cnn3-c3ccc(F)cc3)C[C@]2(C(=O)c2cc(C(F)(F)F)ccn2)C1)S(=O)(=O)c1cnnn1C [Example 169, N-((4aS,6S)-1-(4-fluorophenyl)-4a-(4-(trifluoromethyl)picolinoyl)-4,4a,5,6,7,8-hexahydro-1H-benzo[f]indazol-6-yl)-N,1-dimethyl-1H-1,2,3-triazole-5-sulfonamide]	≤ 100 nM
Cn1cc(S(=O)(=O)N(C2CC2)[C@H]2CCC3=Cc4c(cnn4-c4ccc(F)cc4)C[C@]3(C(=O)c3ncc(C4CC4)s3)C2)cn1 [Example 171, N-cyclopropyl-N-((4aS,6S)-4a-(5-cyclopropylthiazole-2-carbonyl)-1-(4-fluorophenyl)-4,4a,5,6,7,8-hexahydro-1H-benzo[f]indazol-6-yl)-1-methyl-1H-pyrazole-4-sulfonamide]	≤ 100 nM
Cn1ccc(S(=O)(=O)N(CC2CC2)[C@H]2CCC3=Cc4c(cnn4-c4ccc(F)cc4)C[C@]3(C(=O)c3nccs3)C2)n1 [Example 172, N-(cyclopropylmethyl)-N-((4aS,6S)-1-(4-fluorophenyl)-4a-(thiazole-2-carbonyl)-4,4a,5,6,7,8-hexahydro-1H-benzo[f]indazol-6-yl)-1-methyl-1H-pyrazole-3-sulfonamide]	≤ 100 nM
Cn1ncc(S(=O)(=O)N(C2CC2)[C@H]2CCC3=Cc4c(cnn4-c4ccc(F)cc4)C[C@]3(C(=O)c3nccs3)C2)n1 [Example 173, N-cyclopropyl-N-((4aS,6S)-1-(4-fluorophenyl)-4a-(thiazole-2-carbonyl)-4,4a,5,6,7,8-hexahydro-1H-benzo[f]indazol-6-yl)-2-methyl-2H-1,2,3-triazole-4-sulfonamide]	≤ 100 nM
Cn1ncc(S(=O)(=O)N(C2CC2)[C@H]2CCC3=Cc4c(cnn4-c4ccc(F)cc4)C[C@]3(C(=O)c3ncc(C4CC4)s3)C2)n1 [Example 174, N-cyclopropyl-N-((4aS,6S)-4a-(5-cyclopropylthiazole-2-carbonyl)-1-(4-fluorophenyl)-4,4a,5,6,7,8-hexahydro-1H-benzo[f]indazol-6-yl)-2-methyl-2H-1,2,3-triazole-4-sulfonamide]	≤ 100 nM
CCN([C@H]1CCC2=Cc3c(cnn3-c3ccc(F)cc3)C[C@]2(C(=O)c2ncc(C3CC3)s2)C1)S(=O)(=O)c1ccn(C)n1 [Example 175, N-((4aS,6S)-4a-(5-cyclopropylthiazole-2-carbonyl)-1-(4-fluorophenyl)-4,4a,5,6,7,8-hexahydro-1H-benzo[f]indazol-6-yl)-N-ethyl-1-methyl-1H-pyrazole-3-sulfonamide]	≤ 100 nM
O=C(c1ncc(C(F)(F)F)s1)[C@]12Cc3cnn(-c4ccc(F)cc4)c3C=C1CC[C@H](N(C1CC1)S(=O)(=O)c1cnn(C(F)F)c1)C2 [Example 180, N-cyclopropyl-1-(difluoromethyl)-N-((4aS,6S)-1-(4-fluorophenyl)-4a-(5-(trifluoromethyl)thiazole-2-carbonyl)-4,4a,5,6,7,8-hexahydro-1H-benzo[f]indazol-6-yl)-1H-pyrazole-4-sulfonamide]	≤ 100 nM
Cn1cc(S(=O)(=O)N(CC2CC2)[C@H]2CCC3=Cc4c(cnn4-c4ccc(F)cc4)C[C@]3(C(=O)c3ncc(C(F)(F)F)s3)C2)cn1 [Example 181, N-(cyclopropylmethyl)-N-((4aS,6S)-1-(4-fluorophenyl)-4a-(5-(trifluoromethyl)thiazole-2-carbonyl)-4,4a,5,6,7,8-hexahydro-1H-benzo[f]indazol-6-yl)-1-methyl-1H-pyrazole-4-sulfonamide]	≤ 100 nM
CC(C)N([C@H]1CCC2=Cc3c(cnn3-c3ccc(F)cc3)C[C@]2(C(=O)c2ncc(C3CC3)s2)C1)S(=O)(=O)c1ccn(C)n1 [Example 185, N-((4aS,6S)-4a-(5-cyclopropylthiazole-2-carbonyl)-1-(4-fluorophenyl)-4,4a,5,6,7,8-hexahydro-1H-benzo[f]indazol-6-yl)-N-isopropyl-1-methyl-1H-pyrazole-3-sulfonamide]	≤ 100 nM
Cn1ccc(S(=O)(=O)N(CC2CC2)[C@H]2CCC3=Cc4c(cnn4-c4ccc(F)cc4)C[C@]3(C(=O)c3ncc(C4CC4)s3)C2)n1 [Example 187, N-(cyclopropylmethyl)-N-((4aS,6S)-4a-(5-cyclopropylthiazole-2-carbonyl)-1-(4-fluorophenyl)-4,4a,5,6,7,8-hexahydro-1H-benzo[f]indazol-6-yl)-1-methyl-1H-pyrazole-3-sulfonamide]	≤ 100 nM
